According to patent US9901649B2, “Block copolymers for therapeutic drug delivery” (INTERNATIONAL BUSINESS MACHINES CORPORATION, priority 2016, dated 2018):
Values after ≈ are worked out from the molar mass of the structure shown.

Assays:
[1] = tested on: NCCFH-01 cells; assay: In vitro cytotoxicity, MTT assay; type: cell-based; conditions: 48 hours, 37° C., pH 7.4, read-out: half maximal inhibitory concentration IC50
Procedure: BT-474 human breast cancer cell line was purchased from ATCC (Manassas, Va., U.S.A). Hereditary leiomyomastosis and renal cancer cells (NCCFH-01 cell line) was obtained from Dr. Min-Han Tan, Institute of Bioengineering and Nanotechnology, Singapore. Cells were cultured in RPMI-1640 medium containing 25 mM Hepes and L-Glutamine (Lonza, Singapore) supplemented with 10% fetal bovine serum (FBS), 100 U/mL penicillin and 100 μg/mL streptomycin at 37° C. in 5% CO2. 3-[4,5-Dimenthylthiazol-2-yl]-2,5-diphenyl tetrazolium bromide (MTT) was dissolved in phosphate-buffered saline (PBS, pH 7.4) with a concentration of 5 mg/mL, and the solution was filtered with a 0.22 micrometer filter to remove blue formazan crystals prior to usage.
Cytotoxicity of free DOX, DOX-loaded particles, and blank particles was determined through MTT assay. BT-474 cells and NCCFH-01 cells were seeded into 96-well plates at a density of 5×10^3 cells per well and incubated overnight in 100 microliters of RPMI-1640 containing 25 mM Hepes and L-Glutamine, supplemented with 10% FBS and 5% penicillin-streptomycin at 37 C, 5% CO2. […] After gentle agitation for 15 minutes, the absorbance of formazan crystals was taken to be that at 550 nm subtracted by that at 690 nm (TECAN, Switzerland). Cell viability was expressed as a percentage of absorbance of the control cells.

[2] = Mouse body weight change during the in vivo treatments; set-up: species or system female BALB/c nude mice; conditions: nude mice bearing BT-474 xenografts; DOX 5 mg/kg, tail vein injection at day 0, 3, 6 and 10
Procedure: Female BALB/c nude mice were provided by Singapore Biological Research Center (BRC) at 6 weeks of age (20-22 g). All animal studies were adhered to protocols approved by the Singapore BRC's Institutional Animal Care and Use Committee. BT-474 cells (1×10^7) were suspended in 200 microliters of a solution containing Matrigel and PBS (volume ratio: 50/50) and subcutaneously injected into the right flank of female BALB/c nude mice. Estradiol pellet (0.72 mg/pellet, 60 days release) was subcutaneously administered into mice one day before the inoculation. Once the tumor volume reached about 200 mm^3 on the 14th day (recorded as day 0), the mice were randomly divided into 5 groups (7-8 animals per group): group 1 for 0.9% saline as control, group 2 for blank particles, group 3 for free DOX, group 4 for DOX-loaded particles LM-1, and group 5 for DOX-loaded particles LM-2. The dose of DOX in all formulations was 5 mg/kg. The formulations were given to mice via tail vein injection at day 0, 3, 6 and 10. At the predetermined time points, mice were weighed and tumor size was measured with a Vernier caliper. The tumor volume was calculated using the following formula: Tumor volume=length×width^2/2.

COc1cccc2c1C(=O)c1c(O)c3c(c(O)c1C2=O)C[C@@](O)(C(=O)CO)C[C@@H]3O[C@H]1C[C@H](N)[C@H](O)[C@H](C)O1 [DOX, Doxorubicin]
IC50 [1]: 12.7 µg/mL (≈ 23.4 µM) | body weight loss [2]: 20%
